# Experimental data as given in US10894797B2, “Fused tricyclic ring derivatives as SRC homology-2 phosphatase inhibitors” (Nikang Therapuetics, Inc., priority 2018, dated 2021).
# Biological target: SHP2 (Homo sapiens (Human), UniProt Q06124)
# Assay: SHP2 allosteric inhibition assay (DiFMUP substrate, bisphos-IRS1 peptide activation)
# Format: biochemical
# Details: 0.33 nM SHP2, 0.5 μM bisphos-IRS1 peptide, 100 uM DiFMUP, room temperature
# Method: At the basal state, SHP2 is auto-inhibited and access of substrates to the catalytic site is blocked by the […] interactions between the SH2 domains and the PTP domain. When bis-tyrosyl-phosphorylated peptides bind to SH2 domain of SHP2, the PTP domain becomes available for substrate recognition and reaction catalysis and SHP2 is allosterically activated. SHP2 catalytic activity can be measured using a fluorogenic artificial substrate DiFMUP.
# The phosphatase reactions were carried out at room temperature in 384-well black polystyrene plates (Greiner Bio-One, Cat #784076) using assay buffers containing 60 mM HEPES, pH 7.2, 75 mM NaCl, 75 mM KCl, 1 mM EDTA, 0.05% P-20, and 5 mM DTT.
# 0.33 nM of SHP2 was co-incubated with of 0.5 μM of bisphos-IRS 1 peptide (sequence: H2N-LN(pY)IDLDLV(dPEG8)LST(pY)ASINFQK-amide) and various concentrations of compounds for 30-60 min at room temperature. Then the reaction was initiated by addition of the surrogate substrate DiFMUP (Invitrogen, Cat #D6567, 100 uM final).
# The real-time conversion of DiFMUP to DiFMU (6,8-difluoro-7-hydroxyl-4-methyl-coumarin) was measured every 5 min for 30 min using a microplate reader (CLARIOstar, BMG Labtech) with excitation and emission wavelengths of 340 nm and 450 nm, respectively. Initial reaction rates were determined by linear fitting of the data and the inhibitor dose response curves were analyzed using normalized IC50 regression curve fitting with control-based normalization.
# Chain of SHP2 (Q06124 whole entry): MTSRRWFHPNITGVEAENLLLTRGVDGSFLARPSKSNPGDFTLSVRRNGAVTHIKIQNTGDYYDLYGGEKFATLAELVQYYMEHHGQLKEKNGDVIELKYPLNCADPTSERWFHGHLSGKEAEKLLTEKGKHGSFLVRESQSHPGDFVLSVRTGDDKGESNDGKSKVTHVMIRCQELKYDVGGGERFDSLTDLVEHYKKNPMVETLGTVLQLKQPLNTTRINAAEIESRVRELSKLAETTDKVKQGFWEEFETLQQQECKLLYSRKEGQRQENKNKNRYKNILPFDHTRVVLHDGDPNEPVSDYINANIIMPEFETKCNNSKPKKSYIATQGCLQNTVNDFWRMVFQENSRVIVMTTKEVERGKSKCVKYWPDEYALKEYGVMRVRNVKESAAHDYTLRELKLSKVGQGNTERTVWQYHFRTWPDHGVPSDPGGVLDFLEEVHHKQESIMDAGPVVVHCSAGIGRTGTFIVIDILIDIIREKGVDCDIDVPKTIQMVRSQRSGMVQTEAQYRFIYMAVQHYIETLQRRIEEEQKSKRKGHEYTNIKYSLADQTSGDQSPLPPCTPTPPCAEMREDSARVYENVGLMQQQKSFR
smiles,measurement,value
"C[C@@H]1OCC2(CCN(c3ncc(Sc4ccnc5c4OC[C@@H]4C[C@](C)(O)CN54)nc3CO)CC2)[C@@H]1N (single isomer, unassigned) [Compound 18]",Shp2 IC50(nM),one of 21 and 22 is 13 and the other is 8
"C[C@@H]1OCC2(CCN(c3ncc(Sc4ccnc5c4OC[C@@H]4C[C@@](C)(O)CN54)nc3CO)CC2)[C@@H]1N (single isomer, unassigned) [Compound 19]",Shp2 IC50(nM),one of 21 and 22 is 13 and the other is 8
"C[C@@H]1OCC2(CCN(c3ncc(Sc4ccnc5c4OC[C@@H]4CCCN54)nc3CO)CC2)[C@@H]1N [Compound 1, (3-((3S,4S)-4-amino-3-methyl-2-oxa-8-azaspiro[4.5]decan-8-yl)-6-(((S)-6a,7,8,9-tetrahydro-6H-pyrido[3,2-b]pyrrolo[1,2-d][1,4]oxazin-4-yl)thio)pyrazin-2-yl)methanol]",IC50,3 nM
"C[C@@H]1OCC2(CCN(c3ncc(Sc4ccnc5c4OC[C@H]4CCCN54)nc3CO)CC2)[C@@H]1N [Compound 2, (3-((3S,4S)-4-amino-3-methyl-2-oxa-8-azaspiro[4.5]decan-8-yl)-6-(((R)-6a,7,8,9-tetrahydro-6H-pyrido[3,2-b]pyrrolo[1,2-d][1,4]oxazin-4-yl)thio)pyrazin-2-yl)methanol]",IC50,4 nM
"C[C@@H]1OCC2(CCN(c3ncc(Sc4ccnc5c4OC[C@@H]4C[C@H](F)CN54)nc3CO)CC2)[C@@H]1N [Compound 3, (3-((3S,4S)-4-amino-3-methyl-2-oxa-8-azaspiro[4.5]decan-8-yl)-6-(((6aS,8S)-8-fluoro-6a,7,8,9-tetrahydro-6H-pyrido[3,2-b]pyrrolo[1,2-d][1,4]oxazin-4-yl)thio)pyrazin-2-yl)methanol]",IC50,13 nM
"C[C@@H]1OCC2(CCN(c3ncc(Sc4ccnc5c4OC[C@@H]4C[C@@H](F)CN54)nc3CO)CC2)[C@@H]1N [Compound 4, (3-((3S,4S)-4-amino-3-methyl-2-oxa-8-azaspiro[4.5]decan-8-yl)-6-(((6aS,8R)-8-fluoro-6a,7,8,9-tetrahydro-6H-pyrido[3,2-b]pyrrolo[1,2-d][1,4]oxazin-4-yl)thio)pyrazin-2-yl)methanol]",IC50,5 nM
"CO[C@H]1C[C@H]2COc3c(Sc4cnc(N5CCC6(CC5)CO[C@@H](C)[C@H]6N)c(CO)n4)ccnc3N2C1 [Compound 5, (3-((3S,4S)-4-amino-3-methyl-2-oxa-8-azaspiro[4.5]decan-8-yl)-6-(((6aS,8S)-8-methoxy-6a,7,8,9-tetrahydro-6H-pyrido[3,2-b]pyrrolo[1,2-d][1,4]oxazin-4-yl)thio)pyrazin-2-yl)methanol]",IC50,8 nM
"CO[C@@H]1C[C@H]2COc3c(Sc4cnc(N5CCC6(CC5)CO[C@@H](C)[C@H]6N)c(CO)n4)ccnc3N2C1 [Compound 6, (3-((3S,4S)-4-amino-3-methyl-2-oxa-8-azaspiro[4.5]decan-8-yl)-6-(((6aS,8R)-8-methoxy-6a,7,8,9-tetrahydro-6H-pyrido[3,2-b]pyrrolo[1,2-d][1,4]oxazin-4-yl)thio)pyrazin-2-yl)methanol]",IC50,6 nM
"C[C@@H]1OCC2(CCN(c3ncc(Sc4ccnc5c4OC[C@@H]4C[C@H](O)CN54)nc3CO)CC2)[C@@H]1N [Compound 7, (6aS,8S)-4-((5-((3S,4S)-4-amino-3-methyl-2-oxa-8-azaspiro[4.5]decan-8-yl)-6-(hydroxymethyl)pyrazin-2-yl)thio)-6a,7,8,9-tetrahydro-6H-pyrido[3,2-b]pyrrolo[1,2-d][1,4]oxazin-8-ol]",IC50,6 nM
"C[C@@H]1OCC2(CCN(c3ncc(Sc4ccnc5c4OC[C@@H]4C[C@@H](O)CN54)nc3CO)CC2)[C@@H]1N [Compound 8, (6aS,8R)-4-((5-((3 S,4S)-4-amino-3-methyl-2-oxa-8-azaspiro[4.5]decan-8-yl)-6-(hydroxymethyl)pyrazin-2-yl)thio)-6a,7,8,9-tetrahydro-6H-pyrido[3,2-b]pyrrolo[1,2-d][1,4]oxazin-8-ol]",IC50,8 nM
"CO[C@@H]1C[C@@H]2COc3c(Sc4cnc(N5CCC6(CC5)CO[C@@H](C)[C@H]6N)c(CO)n4)ccnc3N2C1 [Compound 9, (3-((3S,4S)-4-amino-3-methyl-2-oxa-8-azaspiro[4.5]decan-8-yl)-6-(((6aR,8R)-8-methoxy-6a,7,8,9-tetrahydro-6H-pyrido[3,2-b]pyrrolo[1,2-d][1,4]oxazin-4-yl)thio)pyrazin-2-yl)methanol]",IC50,8 nM
"CO[C@H]1C[C@@H]2COc3c(Sc4cnc(N5CCC6(CC5)CO[C@@H](C)[C@H]6N)c(CO)n4)ccnc3N2C1 [Compound 10, (3-((3S,4S)-4-amino-3-methyl-2-oxa-8-azaspiro[4.5]decan-8-yl)-6-(((6aR,8S)-8-methoxy-6a,7,8,9-tetrahydro-6H-pyrido[3,2-b]pyrrolo[1,2-d][1,4]oxazin-4-yl)thio)pyrazin-2-yl)methanol]",IC50,10 nM
"C[C@@H]1OCC2(CCN(c3ncc(Sc4ccnc5c4OC[C@@H]4C[C@H](O[C@H]6CCOC6)CN54)nc3CO)CC2)[C@@H]1N [Compound 11, (3-((3S,4S)-4-amino-3-methyl-2-oxa-8-azaspiro[4.5]decan-8-yl)-6-(((6aS,8S)-8-(((S)-tetrahydrofuran-3-yl)oxy)-6a,7,8,9-tetrahydro-6H-pyrido[3,2-b]pyrrolo[1,2-d][1,4]oxazin-4-yl)thio)pyrazin-2-yl)methanol]",IC50,14 nM
"C[C@@H]1OCC2(CCN(c3ncc(Sc4ccnc5c4OC[C@@H]4C[C@H](O[C@@H]6CCOC6)CN54)nc3CO)CC2)[C@@H]1N [Compound 12, (3-((3S,4S)-4-amino-3-methyl-2-oxa-8-azaspiro[4.5]decan-8-yl)-6-(((6aS,8S)-8-(((R)-tetrahydrofuran-3-yl)oxy)-6a,7,8,9-tetrahydro-6H-pyrido[3,2-b]pyrrolo[1,2-d][1,4]oxazin-4-yl)thio)pyrazin-2-yl)methanol]",IC50,12 nM
"C[C@@H]1OCC2(CCN(c3ncc(Sc4ccnc5c4OC[C@@H]4C[C@H](OC6COC6)CN54)nc3CO)CC2)[C@@H]1N [Compound 13, (3-((3S,4S)-4-amino-3-methyl-2-oxa-8-azaspiro[4.5]decan-8-yl)-6-(((6aS,8S)-8-(oxetan-3-yloxy)-6a,7,8,9-tetrahydro-6H-pyrido[3,2-b]pyrrolo[1,2-d][1,4]oxazin-4-yl)thio)pyrazin-2-yl)methanol]",IC50,8 nM
"COCO[C@H]1C[C@H]2COc3c(Sc4cnc(N5CCC6(CC5)CO[C@@H](C)[C@H]6N)c(CO)n4)ccnc3N2C1 [Compound 14, (3-((3S,4S)-4-amino-3-methyl-2-oxa-8-azaspiro[4.5]decan-8-yl)-6-(((6aS,8S)-8-(methoxymethoxy)-6a,7,8,9-tetrahydro-6H-pyrido[3,2-b]pyrrolo[1,2-d][1,4]oxazin-4-yl)thio)pyrazin-2-yl)methanol]",IC50,5 nM
"COCCO[C@H]1C[C@H]2COc3c(Sc4cnc(N5CCC6(CC5)CO[C@@H](C)[C@H]6N)c(CO)n4)ccnc3N2C1 [Compound 15, (3-((3S,4S)-4-amino-3-methyl-2-oxa-8-azaspiro[4.5]decan-8-yl)-6-(((6aS,8S)-8-(2-methoxyethoxy)-6a,7,8,9-tetrahydro-6H-pyrido[3,2-b]pyrrolo[1,2-d][1,4]oxazin-4-yl)thio)pyrazin-2-yl)methanol]",IC50,10 nM
"C[C@@H]1OCC2(CCN(c3ncc(Sc4ccnc5c4OC[C@@H]4C[C@H](OCC6CC6)CN54)nc3CO)CC2)[C@@H]1N [Compound 16, (3-((3S,4S)-4-amino-3-methyl-2-oxa-8-azaspiro[4.5]decan-8-yl)-6-(((6aS,8S)-8-(cyclopropylmethoxy)-6a,7,8,9-tetrahydro-6H-pyrido[3,2-b]pyrrolo[1,2-d][1,4]oxazin-4-yl)thio)pyrazin-2-yl)methanol]",IC50,3 nM
"C[C@@H]1OCC2(CCN(c3ncc(Sc4ccnc5c4OC[C@@H]4CC6(CC6)CN54)nc3CO)CC2)[C@@H]1N [Compound 17, (3-((3S,4S)-4-amino-3-methyl-2-oxa-8-azaspiro[4.5]decan-8-yl)-6-(((S)-6a′,7′-dihydro-6′H,9′H-spiro[cyclopropane-1,8′-pyrido[3,2-b]pyrrolo[1,2-d][1,4]oxazin]-4′-yl)thio)pyrazin-2-yl)methanol]",IC50,2 nM
"C[C@@H]1OCC2(CCN(c3ncc(Sc4ccnc5c4OC[C@@H]4C[C@H](C#N)CN54)nc3CO)CC2)[C@@H]1N [Compound 20, (6aS,8S)-4-((5-((3S,4S)-4-amino-3-methyl-2-oxa-8-azaspiro[4.5]decan-8-yl)-6-(hydroxymethyl)pyrazin-2-yl)thio)-6a,7,8,9-tetrahydro-6H-pyrido[3,2-b]pyrrolo[1,2-d][1,4]oxazine-8-carbonitrile]",IC50,11 nM
"C[C@@H]1OCC2(CCN(c3ncc(Sc4ccnc5c4OC[C@@H]4C[C@H](S(C)(=O)=O)CN54)nc3CO)CC2)[C@@H]1N [Compound 21, (3-((3S,4S)-4-amino-3-methyl-2-oxa-8-azaspiro[4.5]decan-8-yl)-6-(((6aS,8S)-8-(methylsulfonyl)-6a,7,8,9-tetrahydro-6H-pyrido[3,2-b]pyrrolo[1,2-d][1,4]oxazin-4-yl)thio)pyrazin-2-yl)methanol]",IC50,13 nM
